Among the test systems are MCF7 breast; LOX IMVI melanoma; M14 melanoma; DU-145 prostate; KM12 colon; A549 NSCLC; HS 578T breast; NCI-H460 lung; SK-OV-3 ovarian; U251 CNS.
Common to all, as to assay: NCI-60 cell line screen, 48 h

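Tested at 5 concentrations; 48 h exposure; 96-well plates; endpoints linearly interpolated, else capped at highest concentration. The concentration for full growth arrest is given as TGI.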

For `COc1cc(Br)cc2cc(-c3cn4ccsc4n3)c(=O)oc12`, the TGI is 38.6 µM in the experiment with MCF7 breast; more than 100 µM in the experiment on LOX IMVI melanoma; more than 100 µM in the experiment on M14 melanoma; more than 100 µM in the experiment on DU-145 prostate; 56.5 µM in the experiment with KM12 colon; more than 100 µM in the experiment on A549 NSCLC. Moreover, the TGI with HS 578T breast, with NCI-H460 lung, in the experiment with SK-OV-3 ovarian and in the experiment on U251 CNS was more than 100 µM throughout.

On to `Cc1ccccc1C(=O)N1CCc2c([nH]c3ccccc23)C1`, for which the TGI in the experiment with MCF7 breast was 51.8 µM; in the experiment on LOX IMVI melanoma, 50.2 µM; with M14 melanoma it was 45.4 µM; with DU-145 prostate it was 84.5 µM; with KM12 colon, 87 µM; in the experiment on A549 NSCLC, more than 100 µM. Moreover, the TGI in the experiment on HS 578T breast was 84.8 µM; in the experiment with NCI-H460 lung, 53.4 µM; with SK-OV-3 ovarian it was more than 100 µM; in the experiment with U251 CNS, 41.3 µM.

Consider `NC(=O)NCCCC(NC(=O)OCCCCn1ccc(=O)[nH]c1=O)C(=O)O` (stereo not given), for which the TGI with MCF7 breast, with LOX IMVI melanoma, with M14 melanoma, with DU-145 prostate, in the experiment with KM12 colon and with A549 NSCLC was more than 100 µM each time. Moreover, the TGI in the experiment on HS 578T breast, in the experiment with NCI-H460 lung, with SK-OV-3 ovarian and in the experiment with U251 CNS was more than 100 µM throughout.

Regarding `O=C1/C(=C\c2ccccc2)C(NC2CCCCC2)c2ccccc21` (stereo not given), the TGI with MCF7 breast is 2.67 µM; with LOX IMVI melanoma it was 3.33 µM; in the experiment with M14 melanoma, 3.18 µM; in the experiment on DU-145 prostate, 3.09 µM; with KM12 colon, 15.9 µM; in the experiment on A549 NSCLC it was 16.4 µM. Moreover, the TGI with HS 578T breast was 16.3 µM; in the experiment with NCI-H460 lung it was 8.02 µM; in the experiment on SK-OV-3 ovarian, 27 µM; in the experiment on U251 CNS, 3.48 µM.

On to `NC(N)=N/N=C/c1c(-c2ccc(N)cc2)nc2sccn12`, for which the TGI in the experiment with MCF7 breast is more than 100 µM; in the experiment on LOX IMVI melanoma it was more than 100 µM; in the experiment with M14 melanoma it was 57.9 µM; in the experiment with DU-145 prostate, 35.5 µM; in the experiment with KM12 colon, more than 100 µM; in the experiment on A549 NSCLC, 47.6 µM. In addition, the TGI with HS 578T breast was more than 100 µM; in the experiment with NCI-H460 lung it was 76.8 µM; in the experiment with SK-OV-3 ovarian it was 64 µM; with U251 CNS, 64.1 µM.

Take `O=C1C=CC(=O)c2c1ccc1c3ccccc3n(CCCCCCCCCCCCn3c4ccccc4c4ccc5c(c43)C(=O)C=CC5=O)c21`: the TGI in the experiment with MCF7 breast, with LOX IMVI melanoma, with M14 melanoma, with DU-145 prostate, in the experiment on KM12 colon and in the experiment on A549 NSCLC was more than 100 µM throughout. The TGI in the experiment on HS 578T breast, in the experiment on NCI-H460 lung, in the experiment with SK-OV-3 ovarian and in the experiment on U251 CNS was more than 100 µM throughout.

Consider `CC(C)=CCc1c2c(c3occ(-c4ccc(O)cc4)c(=O)c3c1O)CC(C(C)(C)O)O2` (stereo not given), for which the TGI with MCF7 breast is 28.3 µM; in the experiment on LOX IMVI melanoma it was 30.4 µM; in the experiment with M14 melanoma, 28.2 µM; in the experiment on DU-145 prostate, 29.4 µM; in the experiment with KM12 colon, 35.5 µM; with A549 NSCLC it was 27.8 µM. For the same compound, the TGI in the experiment on HS 578T breast is 69.5 µM; in the experiment with NCI-H460 lung it was 26 µM; in the experiment on SK-OV-3 ovarian, 33 µM; in the experiment with U251 CNS, 25.9 µM.

For `CC1(C)N=[N+]([O-])C1(C)C`, the TGI in the experiment with MCF7 breast, in the experiment with LOX IMVI melanoma, with M14 melanoma, in the experiment on DU-145 prostate, in the experiment with KM12 colon and in the experiment with A549 NSCLC was more than 100 µM in each case. The TGI with HS 578T breast, with NCI-H460 lung, in the experiment with SK-OV-3 ovarian and in the experiment with U251 CNS was more than 100 µM each time.

Turning to `N#CCCC1C(C#N)C2(Cl)CC1(Cl)C(Cl)=C2Cl` (stereo not given), the TGI in the experiment with MCF7 breast, in the experiment with LOX IMVI melanoma, in the experiment with M14 melanoma, with DU-145 prostate, in the experiment on KM12 colon and in the experiment with A549 NSCLC was more than 10 µM in each case. The TGI with HS 578T breast, in the experiment with NCI-H460 lung, with SK-OV-3 ovarian and in the experiment on U251 CNS was more than 10 µM throughout.

As for `COc1ccc2cc(NC(=O)N/N=C\c3ccc([N+](=O)[O-])cc3)ccc2c1`, the TGI in the experiment on MCF7 breast, with LOX IMVI melanoma, in the experiment with M14 melanoma, in the experiment on DU-145 prostate, in the experiment on KM12 colon and with A549 NSCLC was more than 100 µM each time. The TGI with HS 578T breast, in the experiment on NCI-H460 lung, in the experiment on SK-OV-3 ovarian and with U251 CNS was more than 100 µM in each case.

Consider `ClCCN1CCC2(CC1)SSC1(CCN(CCCl)CC1)S2`, for which the TGI with MCF7 breast was 39.6 µM; in the experiment with LOX IMVI melanoma, more than 100 µM; in the experiment with M14 melanoma it was more than 100 µM; with DU-145 prostate, more than 100 µM; with KM12 colon it was more than 100 µM; in the experiment with A549 NSCLC it was more than 100 µM. The TGI in the experiment on HS 578T breast was more than 100 µM; in the experiment on NCI-H460 lung, more than 100 µM; in the experiment with SK-OV-3 ovarian, 98.7 µM; with U251 CNS, more than 100 µM.

The values are drawn from PubChem BioAssay (NCI).
